Assay results reported in patent US20080299041A1, “HETEROCYCLIC INDENE DERIVATIVES AND THEIR RADIOISOTOPE LABELED COMPOUNDS FOR IMAGING BETA-AMYLOID DEPOSITION” (SEOUL NATIONAL UNIVERSITY INDUSTRY FOUNDATION, priority 2007, published 2008).

Assays:
[1] = biological target: Aβ1-40 aggregates (Homo sapiens, UniProt P05067); test: In vitro competitive binding assay with 3′-[^125I]I-BTA-1 as radioligand, Aβ1-40 aggregates; conditions: Aβ aggregates 20 nM, 3 h at room temperature, pH 7.2
Experimental: (§1) Affinity to β-amyloid can be measured by incubation with β-amyloid precipitate and count the bound form after separation by centrifugation. Kd or Ki values are obtained either by saturation binding assay or competition assay.
(§2) Aβ1-40 or Aβ1-42 peptides were incubated in phosphate buffer (pH=7.2) overnight to prepare precipitates as reported in literatures, and then aliquoted and stored at −70[…]. (Klunk, W. E.; Wang, Y.; Huang, G-F.; Debnath, M. L.; Holt D. P.; Mathis, C. A. Uncharged thioflavin-T derivatives bind to amyloid-beta protein with high affinity and readily enter the brain. Life Sci. 2001, 69(13), […]; Zhuang, Z.-P.; Kung, M.-P.; Wilson, A.; Lee, C.-W.; Plossl, K.; Hou, C.; Holtzman, D. M.; Kung, H. F.; Structure-activity relationship of imidazo[1,2-a]pyridines as ligands for detecting β-amyloid plaques in the brain. J. Med. Chem. 2003; 46(2), 237-243)
(§3) The binding affinities of benzothiophene derivatives to Aβ aggregates were evaluated by competitive binding assays using 3′-[^125I]I-BTA-1 as a radioligand. […] Nonspecific binding was determined by incubation in the presence of 10 μM thioflavin-T. The reaction mixtures were filtered through Whatman GF/B glass filters and washed twice with 3 mL of 10% ethanol aliquots. Filters were counted using a Nat well counter. Ki values of the benzothiophene derivatives were then calculated from the results and represented on Table 1.

[2] = biological target: Aβ1-42 aggregates (Homo sapiens, UniProt P05067); test: In vitro competitive binding assay with 3′-[^125I]I-BTA-1 as radioligand, Aβ1-42 aggregates; conditions: Aβ aggregates 20 nM, 3 h at room temperature, pH 7.2
Sequence of Aβ1-42 aggregates (P05067 672-713 limits assumed): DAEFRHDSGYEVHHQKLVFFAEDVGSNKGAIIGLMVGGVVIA
Experimental: as §1, §2, §3

[3] = Biodistribution experiment in mice after tail vein injection of ^18F labeled compound; assay type: in vivo, Male ICR mice
Experimental: The penetration of BBB can be estimated by animal experiment. The radiolabeled compounds are intravenously injected to mice, and then the brains are obtained at 2 min, 30 min, and 60 min. The radioactivities of the brain are expressed as the percentage of injected dose per brain weight (gram).
FIG. 2. Biodistribution graph observed in each organ after injection of 2-(4′-[^18F]fluoromethyl)phenyl-1,3-benzothiazole through the mice tail veins. The mice were sacrificed at 2 min, 30 min and 60 min after injection, respectively, and then organs were taken out. The organs were weighed and their radioactivities were measured. The radioactivity distribution in each organ was calculated as the percentage of injected dose per organ weight (gram).
Male ICR mice (n=4/group, 29.9±1.6 g) were injected with 148 kBq/0.1 mL of 2-(4′-[^18F]fluoromethyl)phenyl-1,3-benzothiazole through the tail vein. These injected mice were sacrificed by decapitation 2, 30 and 60 min post-injection. Blood, muscle, lung, liver, spleen, stomach, intestine, brain, and bone were rapidly separated, weighed and counted using a NaI well counter. Results are expressed as percentages of the injected dose per gram of tissue (% ID/g), and represented in FIG. 2. Brain uptake at […] was 5.62±0.28% ID/g and ratio to 30 min was 3.75±0.97, which represent rapid uptake and wash out to and from normal brain.
A comparative mice biodistribution study using 2-(4′-O-(2′-[^18F]Fluoroethyl)hydroxyphenyl)benzothiophene and 2-(4′-O-(3′-[^18F]Fluoropropyl)hydroxyphenyl) benzothiophene was performed according to the same procedure with above Experiment 2.

Sequence of Aβ1-40 aggregates (P05067 672-711 limits assumed): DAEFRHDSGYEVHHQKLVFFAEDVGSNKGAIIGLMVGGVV

Row | Molecule | Ki [1] [nM] | Ki [2] [nM] | Blood uptake ([3]; 2 min post-injection) [% ID/g] | Bone uptake ([3]; 2 min post-injection) [% ID/g] | Brain uptake ([3]; 2 min post-injection) [% ID/g] | Fat uptake ([3]; 2 min post-injection) [% ID/g] | Heart uptake ([3]; 2 min post-injection) [% ID/g] | Intestine uptake ([3]; 2 min post-injection) [% ID/g] | Kidney uptake ([3]; 2 min post-injection) [% ID/g] | Liver uptake ([3]; 2 min post-injection) [% ID/g] | Lung uptake ([3]; 2 min post-injection) [% ID/g] | Muscle uptake ([3]; 2 min post-injection) [% ID/g] | Spleen uptake ([3]; 2 min post-injection) [% ID/g] | Stomach uptake ([3]; 2 min post-injection) [% ID/g] | Blood uptake ([3]; 30 min post-injection) [% ID/g] | Bone uptake ([3]; 30 min post-injection) [% ID/g] | Brain uptake ([3]; 30 min post-injection) [% ID/g] | Fat uptake ([3]; 30 min post-injection) [% ID/g] | Heart uptake ([3]; 30 min post-injection) [% ID/g] | Intestine uptake ([3]; 30 min post-injection) [% ID/g] | other results
1 | 2-(4′-fluoromethyl)phenyl-1,3-benzothiazole | 26.9 ± 5.04 | 28.1 ± 4.44 | – | – | – | – | – | – | – | – | – | – | – | – | – | – | – | – | – | – | –
2 | [18F]CCOc1ccc(-c2cc3ccccc3s2)cc1 [2-(4′-O-(2′-[^18F]Fluoroethyl)hydroxyphenyl)benzothiophene] | – | – | 3.5 ± 0.2 | 2.5 ± 0.2 | 5.2 ± 0.4 | 0.9 ± 0.3 | 8.8 ± 1.0 | 2.7 ± 0.2 | 11.8 ± 0.9 | 9.3 ± 1.5 | 9.3 ± 1.1 | 2.9 ± 0.3 | 4.4 ± 0.8 | 2.1 ± 0.7 | 3.8 ± 0.4 | 3.3 ± 0.2 | 5.2 ± 0.5 | 2.1 ± 1.0 | 3.2 ± 0.2 | 7.2 ± 0.6 | Kidney uptake ([3]; 30 min post-injection): 4.1 ± 0.7 % ID/g; Liver uptake ([3]; 30 min post-injection): 3.9 ± 0.7 % ID/g; Lung uptake ([3]; 30 min post-injection): 3.4 ± 0.6 % ID/g; Muscle uptake ([3]; 30 min post-injection): 2.7 ± 0.3 % ID/g; Spleen uptake ([3]; 30 min post-injection): 2.7 ± 0.5 % ID/g; Stomach uptake ([3]; 30 min post-injection): 2.5 ± 0.3 % ID/g
3 | [18F]CCCOc1ccc(-c2cc3ccccc3s2)cc1 [2-(4′-O-(3′-[^18F]Fluoropropyl)hydroxyphenyl)benzothiophene] | – | – | 3.3 ± 0.5 | 2.2 ± 0.2 | 3.3 ± 0.2 | 0.7 ± 0.1 | 11.9 ± 0.6 | 2.4 ± 0.2 | 13.5 ± 1.2 | 17.0 ± 0.6 | 10.2 ± 1.4 | 3.0 ± 0.2 | 4.1 ± 1.2 | 1.8 ± 0.5 | 1.4 ± 0.1 | 10.7 ± 0.6 | 4.0 ± 0.4 | 1.9 ± 0.4 | 1.8 ± 0.3 | 5.5 ± 0.4 | Kidney uptake ([3]; 30 min post-injection): 4.4 ± 0.4 % ID/g; Liver uptake ([3]; 30 min post-injection): 6.1 ± 0.6 % ID/g; Lung uptake ([3]; 30 min post-injection): 2.2 ± 0.6 % ID/g; Muscle uptake ([3]; 30 min post-injection): 1.6 ± 0.1 % ID/g; Spleen uptake ([3]; 30 min post-injection): 1.5 ± 0.2 % ID/g; Stomach uptake ([3]; 30 min post-injection): 1.0 ± 0.4 % ID/g
4 | [18F]Cc1ccc(-c2nc3ccccc3s2)cc1 [2-(4′-[^18F]fluoromethyl)phenyl-1,3-benzothiazole] | – | – | – | – | – | – | – | – | – | – | – | – | – | – | – | – | – | – | – | – | Bone uptake (in words; in vivo defluorination) ([3]; tail vein): High bone uptake; Brain uptake ([3]; tail vein, "at min" post-injection (time figure missing)): 5.62±0.28 % ID/g; Brain uptake ratio to 30 min ([3]; tail vein, early brain uptake / 30 min): 3.75±0.97
5 | FCc1ccc(-c2nc3ccccc3o2)cc1 [Benzoxaxole, 2-(4′-fluoromethyl)phenyl-1,3-benzoxazole] | 75.7 ± 43.2 | 59.9 ± 5.03 | – | – | – | – | – | – | – | – | – | – | – | – | – | – | – | – | – | – | –
